According to ChEMBL document CHEMBL5625183, “Discovery of a novel dual-target inhibitor of CDK12 and PARP1 that induces synthetic lethality for treatment of triple-negative breast cancer” (Eur J Med Chem, 2023):
Calls of active or inactive are those of the source. No cut-off for these calls is given here.

How the values were obtained:
[1] = Toxicity in BALB/c mouse xenografted with human MDA-MB-231 cells assessed as morphological changes in heart at 20 to 80 mg/kg, ip administered once daily for 16 days by H and E staining based analysis; type: organism-based; conditions: in vivo, 384 h, dose 20-80 mg/kg, time 16 day
[2] = molecular target: T1, Cyclin-dependent kinase 12 (Homo sapiens, UniProt Q9NYV4); test: Inhibition of CDK12 (unknown origin) at 1 uM in presence of ATP by kinase-glo plus luminescent assay relative to control
[3] = Metabolic stability in human liver microsome assessed as intrinsic clearance in presence of NADPH incubated upto 60 mins by LC-MS/MS analysis; type: ADME; conditions: liver microsomes, read-out: CLH
[4] = Metabolic stability in BALB/c mouse liver microsome assessed as half life in presence of NADPH incubated upto 60 mins by LC-MS/MS analysis; type: ADME; conditions: liver microsomes
[5] = Metabolic stability in BALB/c mouse liver microsome assessed as intrinsic clearance in presence of NADPH incubated upto 60 mins by LC-MS/MS analysis; type: ADME; conditions: liver microsomes, read-out: CLH
[6] = MRT (0 to infinity) in Sprague-Dawley rat at 10 mg/kg, po measured upto 24 hrs by LC-MS/MS analysis; type: ADME, organism-based; conditions: in vivo
[7] = Cmax in Sprague-Dawley rat at 1 mg/kg, iv measured upto 24 hrs by LC-MS/MS analysis; type: ADME, organism-based; conditions: in vivo
[8] = Cmax in Sprague-Dawley rat at 10 mg/kg, po measured upto 24 hrs by LC-MS/MS analysis; type: ADME, organism-based; conditions: in vivo
[9] = AUC (0 to infinity) in Sprague-Dawley rat at 10 mg/kg, po measured upto 24 hrs by LC-MS/MS analysis; type: ADME, organism-based; conditions: in vivo
[10] = molecular target: MAP kinase-activated protein kinase 2 (Homo sapiens) (UniProt P49137); test: Inhibition of MAPK2 (unknown origin) at 1 uM relative to control
[11] = molecular target: Cyclin-dependent kinase 1 (Homo sapiens, UniProt P06493); test: Inhibition of CDK1 (unknown origin)
[12] = molecular target: Cyclin-dependent kinase 2 (Homo sapiens, UniProt P24941); test: Inhibition of CDK2 (unknown origin)
[13] = molecular target: T1, Cyclin-dependent kinase 12; test: Inhibition of CDK12 in human MDA-MB-231 cells assessed as effect on Pol II CTD at ser7 residue phosphorylation incubated for 24 hrs; type: cell-based; conditions: dose 5-20 µM
[14] = molecular target: T1, Cyclin-dependent kinase 12; test: Binding affinity to CDK12 in human MDA-MB-231 cells assessed as increase in protein thermal stabilization at 10 uM incubated for 6 hrs by CETSA based Western blot analysis; type: cell-based
[15] = molecular target: Poly [ADP-ribose] polymerase 1 (Homo sapiens, UniProt P09874); test: Binding affinity to PARP1 in human MDA-MB-436 cells assessed as increase in protein thermal stabilization at 10 uM incubated for 6 hrs by CETSA based Western blot analysis; type: cell-based
MDA-MB-436 [16] = test: Antiproliferative activity against human MDA-MB-436 cells transfected with wild type CDK12 and PARP1 G863A mutant incubated for 24 hrs by MTT assay; type: functional, cell-based
MDA-MB-436 [17] = test: Antiproliferative activity against human MDA-MB-436 cells transfected with CDK12 M816A and PARP1 G863A mutant incubated for 24 hrs by MTT assay; type: functional, cell-based
MDA-MB-231 [18] = test: Induction of cell cycle arrest in human MDA-MB-231 cells assessed as accumulation of cells at G2 phase at 5 uM measured after 24 hrs by PI staining based cytometry analysis (reference value: 8.44 %); type: functional
MDA-MB-231 [19] = test: Induction of cell cycle arrest in human MDA-MB-231 cells assessed as accumulation of cells at S phase at 5 uM measured after 24 hrs by PI staining based cytometry analysis (reference value: 23.01 %); type: functional
MDA-MB-231 [20] = test: Induction of cell cycle arrest in human MDA-MB-231 cells assessed as accumulation of cells at G2 phase at 10 uM measured after 24 hrs by PI staining based cytometry analysis (reference value: 8.44 %); type: functional
MDA-MB-436 [21] = test: Induction of cell cycle arrest in human MDA-MB-436 cells assessed as accumulation of cells at G1 phase at 5 uM measured after 24 hrs by PI staining based cytometry analysis (reference value: 72.04%); type: functional
MDA-MB-436 [22] = test: Induction of cell cycle arrest in human MDA-MB-436 cells assessed as accumulation of cells at G2 phase at 5 uM measured after 24 hrs by PI staining based cytometry analysis (reference value: 2.54%); type: functional
MDA-MB-436 [23] = test: Induction of cell cycle arrest in human MDA-MB-436 cells assessed as accumulation of cells at S phase at 5 uM measured after 24 hrs by PI staining based cytometry analysis (reference value: 25.43%); type: functional
MDA-MB-436 [24] = test: Induction of cell cycle arrest in human MDA-MB-436 cells assessed as accumulation of cells at G2 phase at 20 uM measured after 24 hrs by PI staining based cytometry analysis (reference value: 2.54%); type: functional
MDA-MB-436 [25] = test: Induction of cell cycle arrest in human MDA-MB-436 cells assessed as accumulation of cells at S phase at 20 uM measured after 24 hrs by PI staining based cytometry analysis (reference value: 25.43%); type: functional
MDA-MB-468 [26] = test: Antiproliferative activity against human MDA-MB-468 cells assessed as reduction in EDU-positive cells at 10 uM […]-staining based analysis; type: functional, cell-based
MDA-MB-231 [27] = test: Inhibition of cell migration in human MDA-MB-231 cells at 10 uM incubated for 24 hrs by transwell assay; type: functional, cell-based
MDA-MB-468 [28] = test: Inhibition of cell migration in human MDA-MB-468 cells at 10 uM incubated for 24 hrs by transwell assay; type: functional, cell-based
MDA-MB-231 [29] = test: Inhibition of cell migration in human MDA-MB-231 cells assessed as upregulation of E-cadherin level by measuring fluorescence intensity at 10 uM incubated for 24 hrs by confocal microscopic analysis; type: functional, cell-based
MDA-MB-231 [30] = test: Inhibition of cell migration in human MDA-MB-231 cells assessed as downregulation of MMP-2 level by measuring fluorescence intensity at 10 uM incubated for 24 hrs by confocal microscopic analysis; type: functional, cell-based
MDA-MB-468 [31] = test: Induction of apoptosis in human MDA-MB-468 cells incubated for 24 hrs by Annexin V/PI staining based flow cytometry analysis; type: functional, cell-based; conditions: dose 5-20 µM
MDA-MB-231 [32] = test: Induction of apoptosis in human MDA-MB-231 cells assessed as increase in […] at 10 uM incubated for 24 hrs by Annexin V/PI staining based flow cytometry analysis; type: functional, cell-based
[33] = Toxicity in BALB/c mouse xenografted with human MDA-MB-231 cells assessed as morphological changes in lung at 20 to 80 mg/kg, ip administered once daily for 16 days by H and E staining based analysis; type: organism-based; conditions: in vivo, 384 h, dose 20-80 mg/kg, time 16 day
Mus musculus [34] = test: In-vivo inhibition of CDK12-PARP1 in BALB/c mouse assessed as downregulation of PAR expression in tumor at 20 to 80 mg/kg, ip administered once daily for 16 days by Western blot analysis; type: functional, organism-based; conditions: dose 20-80 mg/kg, time 16.0 day
Mus musculus [35] = test: In-vivo induction of DNA damage in ip dosed BALB/c mouse assessed as downregulation of RAD51 level in tumor administered once daily for 16 days by Western blot analysis; type: functional, organism-based; conditions: dose 20-80 mg/kg, time 16.0 day

T1 sequence (Q9NYV4 whole entry, looked up): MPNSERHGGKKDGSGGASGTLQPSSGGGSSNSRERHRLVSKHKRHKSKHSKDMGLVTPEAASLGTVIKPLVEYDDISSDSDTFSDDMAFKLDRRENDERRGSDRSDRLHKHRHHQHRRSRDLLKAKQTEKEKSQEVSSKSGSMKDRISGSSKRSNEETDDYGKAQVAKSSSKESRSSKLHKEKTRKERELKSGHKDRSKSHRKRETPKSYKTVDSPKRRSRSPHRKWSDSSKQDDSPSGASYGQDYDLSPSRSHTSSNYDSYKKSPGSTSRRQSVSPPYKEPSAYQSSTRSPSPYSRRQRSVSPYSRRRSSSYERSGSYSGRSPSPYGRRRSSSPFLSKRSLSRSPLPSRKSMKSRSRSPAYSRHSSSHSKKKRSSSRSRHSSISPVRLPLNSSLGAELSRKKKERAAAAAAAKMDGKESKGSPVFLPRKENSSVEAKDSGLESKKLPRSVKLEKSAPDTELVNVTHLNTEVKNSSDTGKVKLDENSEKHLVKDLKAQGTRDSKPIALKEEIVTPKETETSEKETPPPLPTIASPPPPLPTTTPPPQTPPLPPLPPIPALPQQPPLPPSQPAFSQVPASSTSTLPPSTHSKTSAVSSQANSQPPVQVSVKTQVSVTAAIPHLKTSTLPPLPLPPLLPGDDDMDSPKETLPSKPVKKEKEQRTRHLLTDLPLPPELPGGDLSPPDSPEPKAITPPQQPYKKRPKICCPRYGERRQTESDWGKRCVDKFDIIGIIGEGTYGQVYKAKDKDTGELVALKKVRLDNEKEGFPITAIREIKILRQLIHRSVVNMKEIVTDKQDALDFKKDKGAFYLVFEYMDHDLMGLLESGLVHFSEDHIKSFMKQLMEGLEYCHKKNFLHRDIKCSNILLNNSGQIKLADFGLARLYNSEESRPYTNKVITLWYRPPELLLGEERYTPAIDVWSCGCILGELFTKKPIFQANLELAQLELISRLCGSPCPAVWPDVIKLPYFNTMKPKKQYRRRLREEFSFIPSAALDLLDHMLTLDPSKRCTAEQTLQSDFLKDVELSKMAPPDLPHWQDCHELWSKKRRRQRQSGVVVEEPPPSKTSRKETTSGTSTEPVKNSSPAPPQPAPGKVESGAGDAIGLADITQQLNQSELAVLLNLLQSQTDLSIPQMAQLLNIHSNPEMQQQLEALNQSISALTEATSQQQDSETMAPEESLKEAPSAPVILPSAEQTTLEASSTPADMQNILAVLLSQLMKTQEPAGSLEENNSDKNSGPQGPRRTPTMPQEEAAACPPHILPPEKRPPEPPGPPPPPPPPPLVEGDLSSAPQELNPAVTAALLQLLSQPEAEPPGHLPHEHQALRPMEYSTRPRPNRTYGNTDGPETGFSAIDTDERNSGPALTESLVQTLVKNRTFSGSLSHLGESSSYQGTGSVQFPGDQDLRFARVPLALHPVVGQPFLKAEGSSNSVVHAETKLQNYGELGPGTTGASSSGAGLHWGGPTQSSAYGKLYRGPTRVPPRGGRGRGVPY
Chain of MAP kinase-activated protein kinase 2 (Homo sapiens) (P49137 whole entry, looked up): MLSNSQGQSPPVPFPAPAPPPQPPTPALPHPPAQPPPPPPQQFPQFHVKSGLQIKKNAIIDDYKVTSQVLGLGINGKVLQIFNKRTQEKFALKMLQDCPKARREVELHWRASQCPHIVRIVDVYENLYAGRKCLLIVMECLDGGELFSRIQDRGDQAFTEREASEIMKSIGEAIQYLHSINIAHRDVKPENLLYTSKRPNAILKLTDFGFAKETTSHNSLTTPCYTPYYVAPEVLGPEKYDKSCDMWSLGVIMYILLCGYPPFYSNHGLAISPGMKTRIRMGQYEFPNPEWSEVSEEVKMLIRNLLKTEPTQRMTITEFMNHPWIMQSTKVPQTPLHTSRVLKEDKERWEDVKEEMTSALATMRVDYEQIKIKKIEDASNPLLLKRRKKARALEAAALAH
Chain of Poly [ADP-ribose] polymerase 1 (P09874 whole entry): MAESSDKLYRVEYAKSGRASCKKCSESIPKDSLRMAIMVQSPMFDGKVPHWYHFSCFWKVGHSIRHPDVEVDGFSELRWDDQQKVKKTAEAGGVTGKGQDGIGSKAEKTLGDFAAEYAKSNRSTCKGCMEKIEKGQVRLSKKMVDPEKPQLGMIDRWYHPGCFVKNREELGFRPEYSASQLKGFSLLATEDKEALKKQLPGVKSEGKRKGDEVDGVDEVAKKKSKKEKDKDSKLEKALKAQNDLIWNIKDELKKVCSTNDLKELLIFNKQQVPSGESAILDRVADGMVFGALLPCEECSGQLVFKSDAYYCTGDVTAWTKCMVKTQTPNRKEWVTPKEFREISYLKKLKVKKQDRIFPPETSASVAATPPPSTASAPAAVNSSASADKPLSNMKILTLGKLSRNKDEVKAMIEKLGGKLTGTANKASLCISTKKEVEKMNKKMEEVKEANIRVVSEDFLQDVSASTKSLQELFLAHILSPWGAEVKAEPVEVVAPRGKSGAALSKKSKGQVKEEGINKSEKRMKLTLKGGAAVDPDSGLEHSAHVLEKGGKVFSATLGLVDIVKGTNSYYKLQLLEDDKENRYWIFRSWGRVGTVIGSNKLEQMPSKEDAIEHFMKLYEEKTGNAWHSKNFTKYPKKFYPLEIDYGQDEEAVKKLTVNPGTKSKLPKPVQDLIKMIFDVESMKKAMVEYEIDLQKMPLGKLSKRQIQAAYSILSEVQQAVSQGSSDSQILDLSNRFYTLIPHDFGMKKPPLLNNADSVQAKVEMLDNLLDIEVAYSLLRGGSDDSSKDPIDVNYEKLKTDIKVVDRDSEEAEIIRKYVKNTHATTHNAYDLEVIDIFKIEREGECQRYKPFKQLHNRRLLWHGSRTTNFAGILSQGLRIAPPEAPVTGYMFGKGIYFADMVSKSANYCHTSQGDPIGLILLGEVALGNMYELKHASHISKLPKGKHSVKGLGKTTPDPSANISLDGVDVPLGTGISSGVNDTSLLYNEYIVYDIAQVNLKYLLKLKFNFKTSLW
Chain of Cyclin-dependent kinase 1 (P06493 whole entry): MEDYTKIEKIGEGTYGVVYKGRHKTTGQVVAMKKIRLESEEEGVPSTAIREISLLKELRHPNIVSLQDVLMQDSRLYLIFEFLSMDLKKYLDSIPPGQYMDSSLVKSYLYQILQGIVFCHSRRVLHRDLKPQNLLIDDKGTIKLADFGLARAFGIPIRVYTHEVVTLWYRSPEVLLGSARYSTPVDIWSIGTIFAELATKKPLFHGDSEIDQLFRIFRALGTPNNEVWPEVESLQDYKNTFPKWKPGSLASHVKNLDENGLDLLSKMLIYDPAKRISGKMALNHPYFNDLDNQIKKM

- inhibition [2]: 77.3%
- CLint scaled [3]: 7.61 mL/min/kg
- half-life [4]: 1.88 h
- CLint scaled [5]: 48.5 mL/min/kg
- MRT inf [6]: 4.76 h
- Cmax [7]: 2130 ng/mL
- Cmax [8]: 12.2 ng/mL
- AUC(0-inf) [9]: 71.2 ng·h/mL
- inhibition [10]: > 60%
- IC50 [11]: 0.517 µM
- IC50 [12]: 0.689 µM
- inhibition [13]: Dose-Dependent Effect
- Activity [14]: Active
- Activity [15]: Active
SMILES: NC(=O)c1cccc2[nH]c(NC(=O)c3cccc(C(=O)N4CCC(Nc5ncc(I)cn5)CC4)c3)nc12
- Activity [1]: Non-Toxic
- Activity (MDA-MB-436 [16]): Active
- Activity (MDA-MB-436 [17]): Active
- Activity (MDA-MB-231 [18]): 16.84%
- Activity (MDA-MB-231 [19]): 19.81%
- Activity (MDA-MB-231 [20]): 20.35%
- Activity (MDA-MB-436 [21]): 69.11%
- Activity (MDA-MB-436 [22]): 4.39%
- Activity (MDA-MB-436 [23]): 26.5%
- Activity (MDA-MB-436 [24]): 15.05%
- Activity (MDA-MB-436 [25]): 21.2%
- Activity (MDA-MB-468 [26]): Active
- inhibition (MDA-MB-231 [27]): Active
- inhibition (MDA-MB-468 [28]): Active
- inhibition (MDA-MB-231 [29]): Active
- inhibition (MDA-MB-231 [30]): Active
- Activity (MDA-MB-468 [31]): Dose-Dependent Effect
- Activity (MDA-MB-231 [32]): Active
- Activity [33]: Non-Toxic
- inhibition (Mus musculus [34]): Active
- Activity (Mus musculus [35]): Dose-Dependent Effect
